Experiments:
[1] = tested on: wound (skin punch, ID 12 mm); test: Murine wound model, percentage closure of the wound; assay type: in vivo, ICR mice; conditions: topical 10 ug per mouse daily for 10 consecutive days; Day 5 to Day 11; vs negative control (PBS)
Source text: FIGS. 1 and 2 illustrate the effect of polypeptides IK34720 (SEQ ID NO: 3—RSKAKNPLYRRRRRRRRR) (FIG. 1) and the dextro-reverso sequence IK236770 (SEQ ID NO: 4—rrrrrrrrrylpnkaksr) (FIG. 2), on wound healing over 10 days in a murine wound model in accordance with the following protocol.
Three groups of 8 male ICR mice with a mean weight of 22 g (±2 g) were used in the present study. The animals were housed in individual cages during the study. Under isoflurane gas anaesthesia, the shoulder and back region of each animal was shaved and a sharp punch (ID 12 mm) was used to induce a wound by removing the skin, including panniculus carnosus and adherent tissues on Day 1.
Following induction of the wound the polypeptides IK34720 and IK236770 were topically administered to the site of the wound at a dosage of 10 μg per animal. […] An additional group which comprised the administration of Phosphate buffered Saline (PBS) at pH 7.4 was used as a negative control.
The wound healing was analysed on Days 5, 7, 9 and 11 by tracing the periphery of the wound onto clear plastic sheets with the wound area calculated by an Image analyzer ProPlus (Media Cybernetics, Version 4.5.0.29. The percentage closure of the wound (%) was calculated. Percentage closure of the wound was determined on 5, 7, 9 and 11. ANOVA and Dunnett's test were applied to test significant significance between the treated groups (peptide and positive control groups) and the negative control group at each time point of measurement. Differences were considered statistically significant at P<0.05, and are indicated by *.

TGFβRII = TGFβRII expression in UV irradiated dermal fibroblasts (Western analysis); assay type: cell-based, human; conditions: 1, 2.5, 5 and 10 μM added immediately after UV; 5 h post UV; primary fibroblasts; FIG. 3B
Experimental: The influence of the polypeptide IK34720 (SEQ ID NO: 3) on TGFβRII phosphorylation was assessed using the following protocol.
Human skin dermal fibroblasts were cultured from keratome biopsies of healthy adult human skin. Cells were between passages three and six. For UV irradiation, subconfluent cells were washed once with phosphate-buffered saline (PBS) and irradiated with UV. Immediately following irradiation, negative control (vehicle) or 1 μM, 2.5 μM, 5 μM and 10 μM of IK34720 (“1K” in FIG. 3B, SEQ ID NO: 3) were added to the cell cultures.
For Western analysis, nuclear extracts were prepared, membrane fractions were prepared and resolved on 8% SDS-polyacrylamide gel electrophoresis, transferred to polyvinylidene difluoride membrane, and reacted with primary antibodies. Blots were visualized and quantified.

[2] = tested on: Cyclobutane pyrimidine dimers (CPDs) in primary keratinocytes; test: CPD detection by IHC in keratinocytes after UV-irradiation in vitro; assay type: cell-based
Experimental: An in vitro assay was conducted allowing for densitometry analysis of CPD detection by IHC in keratinocytes 3 h following UV-irradiation in accordance with the following protocol.
Keratinocytes were harvested and cultured as described above at Example 2. Samples were split into two groups, being UV irradiated (UVR) and non-UV irradiated (SHAM). UV-irradiation was performed by solar simulated UV-irradiation for cells, also as described above at Example 2. Irradiation solution was PBS containing 5 mM D-glucose. […]
Harvested keratinocytes were plated on poly-D-lysine coated coverslips in 96 well plates and irradiated (or sham treated) as described above in at Example 2 in PBS containing 5 mM D-glucose. Keratinocytes were fixed 3 h after UV-irradiation. Immunohistochemistry and image analysis were performed as described previously (Gordon-Thomson et al., Photochem Photobiol Sci, 2012, 11(12):1837-47; Gupta et al., vide supra, Rybchyn MS et al., J Invest Dermatol, 2018;138(5):1146-1156). Thymine dimers were detected using the anti-thymine dimer antibody (Sigma-Aldrich, Mo., USA) at 10 μg/mL, and quantified as an index of CPD, as previously described (Douki T and Cadet J, Biochemistry,2001, 40(8):2495-501).

apoptotic keratinocytes = test: Sunburn (apoptotic) cells in mouse skin after UV-irradiation; assay type: in vivo, Skh:hr1 hairless mice; conditions: topical 20, 100 or 200 ug in 100 uL immediately after UVR; FIG. 11
Experimental: UV-induced DNA damage in the form of elevated CPDs can induce mutations in epidermal cells leading to the development of cancer cells. Reduction of CPDs through application of DNA repair enzymes prevents the risk of UV-induced skin cancer and reduce the level of apoptotic cells following UV-induced damage. The number of apoptotic skin cells following UV-irradiation was assessed in accordance with the following protocol.
Female Skh:hr1 hairless mice were prepared, irradiated and biopsied according to the methods of Example 4. Prior to biopsy, and immediately after irradiation, mice were treated with either a base lotion vehicle (negative control), 11.4 pmol/cm2 of Calcitriol in vehicle (positive control) the polypeptide IK34720 (SEQ ID NO: 3) in water, at 20 ug, 100 ug or 200 ug in a total volume of 100 uL.
Biopsies were taken from UV-irradiated dorsal skin 3 hrs post-UVR and fixed in Histochoice fixative (Amresco, Solon OH) for 6 h. Skin samples were paraffin-embedded and 5 micrometre sections were cut for all analyses. Sections (24 h after UV) were subjected to routine hematoxylin and eosin staining for visualization of sunburn cells. The stained sections were examined under a Zeiss-Axioplan light microscope at 40× magnification, and the number of sunburn cells per linear millimetre of skin section recorded.

[3] = tested on: CPDs in human skin explants; test: CPD formation in human skin explants after UV-irradiation; assay type: cell-based
Experimental: Human skin removed at elective surgery was cleaned, dissected and cut into pieces of approx. 5 mm×5 mm. Each piece was placed in a well of a 96 well plate, with individual plates prepared to assess the effects 3 hrs post treatment. All samples were performed in triplicate for each treatment. Skin was subjected to UV-radiation from solar-simulated UV source for 1.5 h (UVR), or non-irradiation (SHAM). Given that human skin is thicker than mouse skin, human skin explants were exposed to a radiation dose three times higher than that used for mouse skin, i.e., 20 J/cm2 versus 7 J/cm2, respectively, and the output spectrum of the laboratory solar simulator has previously been reported (Rybchyn MS et al, J Invest Dermatol. 2018 May; 138(5):1146-1156) and treated immediately after with a vehicle control, Calcitriol (1 nM) or the polypeptide IK34720 (SEQ ID NO: 3) at concentrations of 50 μM, 250 μM or 500 uM.
Samples harvested at 3 hrs were fixed, section, stained and quantified as described in Example 5.

Question: How did the wound closure percentage [1] turn out when “RSKAKNPLYRRRRRRRRR [IK34720, 18-residue polypeptide: … with a C-terminal polyarginine region of 8 arginines]” was run?
Answer: Its wound closure percentage is “statistically significant increase (P<0.05) in wound closure percentage”.

Question: What about the TGFβRII expression (TGFβRII) of the same sequence?
Answer: The TGFβRII expression was “restored TGFβRII expression in UV treated cells”.

Question: And the “CPD levels vs keratinocytes treated with Calcitriol” value ([2]; 5 μM, 3 h after UV)?
Answer: Its value is “comparable reduction in CPD levels”.

Question: What about the “CPD levels vs vehicle-treated UV-irradiated keratinocytes” value ([2]; 5 μM, 3 h after UV) of the same sequence?
Answer: Its value is “statistically significant (*p<0.05) reduction in CPD levels”.

Question: And the “CPD formation (average intensity of CPD staining) vs positive control” value ([2]; 10 uM, FIG. 8B)?
Answer: Its value is “more effective at inhibiting CPD formation than the positive control 1,25 D”.

Question: What about the CPD levels ([2]; 0.5, 1, 2.5 or 5 μM after ssUV, keratinocytes fixed 3 h after UV, FIGS. 7 and 8) of the same sequence?
Answer: The CPD levels was “decreases CPD levels in primary keratinocytes exposed to solar simulated UV-irradiation in a dose dependent manner”.

Question: And the “number of apoptotic keratinocytes (sunburn cells)” value (apoptotic keratinocytes)?
Answer: The value was “reduced the number of apoptotic keratinocytes”.

Question: What about the “percentage of CPD positive cells” value ([3]; 500 μM, 3 hrs, two individuals, FIG. 13A and B) of the same sequence?
Answer: The value was “statistically significantly reduced”.

Question: And the “cells having CPDs (stained cells)” value ([3]; 3 hrs post irradiation/treatment, Calcitriol 1 nM, IK34720 50, 250 or 500 uM, FIG. 12)?
Answer: Its value is “fewer stained cells”.
